In patent publication US20230103444A1 (The Regents of the University of Colorado, a Body Corporate, priority 2020, published 2023):
Entries after “also recorded” stand apart in the source; their conditions may differ.

Columns and labels:
TCF-transcription = test: TOPflash TCF-transcriptional reporter assay; format: cell-based, human; conditions: TOPflash reporter in CRC cell lines (SW620, HCT116, DLD1CHD1L-OE), 24 h; listed as 8
Experimental: TOPflash assay (Millipore, Billerica, Mass.) was used to evaluate TCF transcriptional activity in CRC cells. A total of 20,000 cells per well were plated into 96-well white plates and transfected with TransIT®-LT1 transfection reagent (Mirus, Madison, Wis.). Cells were incubated with transfection mix for 24 h. Next, cells were washed with phosphate-buffered solution (PBS) and a 1:1 ratio of PBS:ONE-Glo™ luciferase reagent Promega (Madison, Wis.) was added and the luminescence was detected within 10 min. A duplicate experiment was conducted to measure cell viability using CellTiter-Glo® Luminescent Cell Viability Assay (Promega, Madison, Wis.), which was used to normalize TOPflash luminescence to obtain the fold change in TCF activity. Experiments were replicated 2× (n=3 for each experiment).
TCF-transcriptional Reporter Assay. […] Afterwards, cells from the white solid bottom plate were carefully washed with PBS and a 1:1 ratio of PBS:One-Glo Luciferase Assay System (Promega) was added, incubated for 10 min, and luminescence was quantified on Envision plate reader (PerkinElmer) for TCF-activity. As a control, cells from the clear plate were lysed with Mammalian Cell Lysis Buffer (Promega) and the total protein from each well was quantified with BCA assay (ThermoFisher).

DLD1CHD1L-OE cells = test: DNA damage by γ-H2AX immunofluorescence; format: cell-based, human; conditions: 6 h; for DNA damage (γ-H2AX), combination with SN-38: compound 10 μM + SN-38 1 μM, vs SN-38 alone
Experimental: DLD1^CHD1L-OE cells were seeded into a 96-well PerkinElmer Cell Carrier plate and allowed to adhere overnight. Cells were then treated with the appropriate compound at 10 μM (0.5% DMSO) or with CHD1L inhibitor in combination SN-38 (1 μM), oxaliplatin (10 μM), and etoposide (10 μM). Cells were treated for 6 h. Media was aspirated and cells were washed with cold PBS. Cells were then fixed with 3% paraformaldehyde for 15 min at room temperature, fixed cells were washed with PBS three times. Cells were blocked for 1 hour at room temperature in 5% BSA, 0.3% Triton X-100 in PBS. Cells were then immunostained with phospho-(S139)-g-H2AX rabbit mAb using a 1:800 dilution in 1% BSA, 0.3% Triton X-100 in PBS at 4° C. overnight. Primary antibody was aspirated and cells were washed with PBS. Cells were incubated for 2 h at room temperature with goat anti-rabbit Alexa Fluor Plus™ 647 fluorescent secondary antibody at a concentration of 5 μg/mL in 1% BSA, 0.3% Triton X-100 in PBS. Cells were then washed with PBS, Hoechst 33342 stain was diluted to a concentration of 1:1000 in PBS, and added to cells for 15 min at room temperature. Cells were then imaged using a 20× water objective on the Opera Phenix™ HCS imaging system (PerkinElmer). Synergy was determined using the coefficient of drug interaction (CDI) equation, CDI=(A+B)/(AB). Synergy was defined in these experiments with a CDI<0.8. Additivity was 0.8-1.2 and antagonism was defined by a CDI>1.2.
γ-H2AX DNA damage combination studies with irinotecan (SN38). CHD1L inhibitor 6 alone and in combination with SN38 was assessed for DNA damage as previously reported [Abbott et al., 2020; Abraham et al., 2019]. Using DLD1 colorectal cancer cells that have low CHD1L endogenous expression and DLD1 cells engineered to overexpress CHD1L, DNA damage studies were conducted measuring the immunofluorescence of γ-H2AX, a well-established biomarker of DNA damage [Ji et al., 2017; Ivashkevich et al., 2012]. […] Media was aspirated and cells were washed with cold PBS. Cells were then fixed with 3% paraformaldehyde for 15 min at room temperature and washed with PBS three times. Cells were blocked for 1 hour at room temperature in 5% BSA, 0.3% Triton X-100 in PBS. Cells were then immunostained with phospho-(S139)-γ-H2AX rabbit mAb using a 1:800 dilution in 1% BSA, 0.3% Triton X-100 in PBS at 4° C. overnight. Primary antibody was aspirated, and cells were washed with PBS. Cells were incubated for 2 hours at room temperature with goat anti-rabbit Alexa Fluor Plus™ 647 fluorescent secondary antibody at a concentration of 5 μg/mL in 1% BSA, 0.3% Triton X-100 in PBS. Cells were then washed with PBS; Hoechst 33342 stain was diluted to a concentration of 1:1000 in PBS and added to cells for 15 min at room temperature. Cells were then imaged using a 20× water objective on the PerkinElmer Phenix HCS imaging system. […] CDI=(A+B)/(AB), synergy was determined with a CDI<0.8, additivity was 0.8-1.2, and antagonism was defined by a CDI>1.2. Welch's t-test statistical analysis was used to determine significance, where **=P≤0.01.

[1] = Accumulation in SW620 xenograft tumors and liver; format: in vivo, athymic nude mice; conditions: 50 mg/kg i.p. QD 5 days, n=4
Experimental: Growth was monitored with caliper measurements 3× per week. […] Treatments were administered i.p. QD over five days. Mice were sacrificed 2 h after the final dose on day five of the treatment.

In the case of `Cc1cc(Nc2ccc(NC(=O)c3c[nH]c4ccccc34)cc2)nc(N2CCCC2)n1` [Compound 6.3, N-(4-((6-methyl-2-(pyrrolidin-1-yl)pyrimidin-4-yl)amino)phenyl)-1H-indole-3-carboxamide], the “inhibition of TCF-transcription, in words” value (TCF-transcription) is reported as “potent low μM dose-dependent inhibition; also recorded: more potent dose dependent inhibition”.

For `Cc1cc(Nc2ccc(NC(=O)Cc3cccs3)cc2)nc(N2CCCC2)n1` [Compound 6, N-(4-((6-methyl-2-(pyrrolidin-1-yl)pyrimidin-4-yl)amino)phenyl)-2-(thiophen-2-yl)acetamide], the “DNA damage (γ-H2AX activity), compound alone” value (DLD1CHD1L-OE cells; 10 μM) was “no significant DNA damage”, the “DNA damage (γ-H2AX), combination with SN-38” value (DLD1CHD1L-OE cells) was “synergized” and the “DNA damage (γ-H2AX), combination with SN-38” value (DLD1CHD1L-OE cells; listed as 6.0) was “synergy”. The “DNA damage (γ-H2AX), combination with etoposide” value (DLD1CHD1L-OE cells; compound 10 μM + etoposide 10 μM, vs etoposide alone) was “synergized”, the “DNA damage (γ-H2AX), combination with oxaliplatin” value (DLD1CHD1L-OE cells; compound 10 μM + oxaliplatin 10 μM) was “no synergy” and the “concentration accumulated in SW620 tumors” value [1] was 10,533±5,579 ng/mL.
